Measured values as given in patent publication US20080275032A1, “Pyridazinone compounds” (priority 2006, published 2008).

biological target: HCV NS5B polymerase (Hepatitis C virus genotype 1b, UniProt P26663); test: biochemical; details: HCV polymerase inhibition, 50 nM enzyme, 2 h at room temperature, FlashPlate [α-33P]GTP incorporation
Method: NS5B Polymerase Inhibition Assay (IC50)
Compounds were tested for HCV polymerase inhibition. Assays were performed in a 96-well streptavidin-coated FlashPlate using 50 nM enzyme, 0.5 μCi of [α-^33P]GTP, 0.6 μM GTP, and 50 nM 5′biotinylated oligo (rG13)/poly rC in 20 mM Tris-HCl, pH 7.5, 5 mM MgCl2, 20 mM NaCl, 5 mM dithiothreitol, and 0.1 g/L BSA. The reaction was stopped by aspiration after 2 h at room temperature and the plate was washed several times. After washing, incorporated radioactivity was counted using a Microbeta scintillation counter.

HCV NS5B polymerase, sequence (P26663 2420-3010): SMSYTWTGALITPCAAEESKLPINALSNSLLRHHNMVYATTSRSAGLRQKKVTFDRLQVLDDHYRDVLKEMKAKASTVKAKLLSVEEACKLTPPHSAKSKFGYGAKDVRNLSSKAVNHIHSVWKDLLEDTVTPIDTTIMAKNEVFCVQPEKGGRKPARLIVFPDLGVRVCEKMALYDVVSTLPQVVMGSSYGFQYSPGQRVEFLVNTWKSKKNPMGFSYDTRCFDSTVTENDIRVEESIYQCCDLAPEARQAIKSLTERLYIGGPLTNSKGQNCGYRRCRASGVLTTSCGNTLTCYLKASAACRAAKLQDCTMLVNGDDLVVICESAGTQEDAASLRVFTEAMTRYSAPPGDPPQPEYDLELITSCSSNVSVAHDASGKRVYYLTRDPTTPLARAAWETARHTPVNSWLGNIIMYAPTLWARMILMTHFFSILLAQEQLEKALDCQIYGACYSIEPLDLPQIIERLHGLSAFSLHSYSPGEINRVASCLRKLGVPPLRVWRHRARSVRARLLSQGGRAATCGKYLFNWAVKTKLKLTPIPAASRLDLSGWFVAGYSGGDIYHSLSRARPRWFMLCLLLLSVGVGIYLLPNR

SMILES | IC50
CC(C)=Cc1nn(CCC2CC2)c(=O)c(C2=Nc3ccc(NS(C)(=O)=O)cc3S(=O)(=O)N2)c1O [N-{3-[2-(2-Cyclopropyl-ethyl)-5-hydroxy-6-(2-methyl-propenyl)-3-oxo-2,3-dihydro-pyridazin-4-yl]-1,1-dioxo-1,2-dihydro-1λ^6-benzo[1,2,4]thiadiazin-7-yl}-methanesulfonamide] | < 100 nM
CS(=O)(=O)Nc1ccc2c(c1)S(=O)(=O)NC(c1c(O)c(-c3cncs3)nn(Cc3ccc(F)cc3)c1=O)=N2 [N-{3-[2-(4-Fluoro-benzyl)-5-hydroxy-3-oxo-6-thiazol-5-yl-2,3-dihydro-pyridazin-4-yl]-1,1-dioxo-1,2-dihydro-1λ^6-benzo[1,2,4]thiadiazin-7-yl}-methanesulfonamide] | < 100 nM
CS(=O)(=O)Nc1ccc2c(c1)S(=O)(=O)NC(c1c(O)c(-c3cncs3)nn(CC3CCC3)c1=O)=N2 [N-[3-(2-Cyclobutylmethyl-5-hydroxy-3-oxo-6-thiazol-5-yl-2,3-dihydro-pyridazin-4-yl)-1,1-dioxo-1,2-dihydro-1λ^6-benzo[1,2,4]thiadiazin-7-yl]-methanesulfonamide] | < 100 nM
CCC(C)(C)CCn1nc(-c2cccs2)c(O)c(C2=NS(=O)(=O)c3cc(NS(C)(=O)=O)ccc3N2)c1=O [N-{3-[2-(3,3-Dimethyl-pentyl)-5-hydroxy-3-oxo-6-thiophen-2-yl-2,3-dihydro-pyridazin-4-yl]-1,1-dioxo-1,2-dihydro-1λ^6-benzo[1,2,4]thiadiazin-7-yl}-methanesulfonamide] | < 100 nM
CC(C)CCn1nc(-c2cccs2)c(O)c(C2=Nc3ccc(N(COCc4ccccc4)S(C)(=O)=O)cc3S(=O)(=O)N2)c1=O [N-Benzyloxymethyl-N-{3-[5-hydroxy-2-(3-methyl-butyl)-3-oxo-6-thiophen-2-yl-2,3-dihydro-pyridazin-4-yl]-1,1-dioxo-1,2-dihydro-1λ^6-benzo[1,2,4]thiadiazin-7-yl}-methanesulfonamide] | 1000 to 10000 nM
CS(=O)(=O)Nc1ccc2c(c1)S(=O)(=O)N=C(c1c(O)c(-c3cccs3)nn(Cc3ccc(F)cc3)c1=O)N2 [N-{3-[2-(4-Fluoro-benzyl)-5-hydroxy-3-oxo-6-thiophen-2-yl-2,3-dihydro-pyridazin-4-yl]-1,1-dioxo-1,2-dihydro-1λ^6-benzo[1,2,4]thiadiazin-7-yl}-methanesulfonamide] | < 100 nM
CS(=O)(=O)Nc1ccc2c(c1)S(=O)(=O)N=C(c1c(O)c(-c3cccs3)nn(Cc3ccsc3)c1=O)N2 [N-[3-(5-Hydroxy-3-oxo-6-thiophen-2-yl-2-thiophen-3-ylmethyl-2,3-dihydro-pyridazin-4-yl)-1,1-dioxo-1,2-dihydro-1λ^6-benzo[1,2,4]thiadiazin-7-yl]-methanesulfonamide] | < 100 nM
CS(=O)(=O)Nc1ccc2c(c1)S(=O)(=O)N=C(c1c(O)c(-c3cccs3)nn(Cc3ccccc3)c1=O)N2 [N-[3-(2-Benzyl-5-hydroxy-3-oxo-6-thiophen-2-yl-2,3-dihydro-pyridazin-4-yl)-1,1-dioxo-1,2-dihydro-1λ^6-benzo[1,2,4]thiadiazin-7-yl]-methanesulfonamide] | < 100 nM
CCC(C)n1nc(-c2cccs2)c(O)c(C2=NS(=O)(=O)c3cc(NS(C)(=O)=O)ccc3N2)c1=O (stereo not shown) [N-[3-(2-sec-Butyl-5-hydroxy-3-oxo-6-thiophen-2-yl-2,3-dihydro-pyridazin-4-yl)-1,1-dioxo-1,2-dihydro-1λ^6-benzo[1,2,4]thiadiazin-7-yl]-methanesulfonamide] | 100 to 1000 nM
O=c1c(C2=Nc3ccc(NS(=O)(=O)C4CC4)cc3S(=O)(=O)N2)c(O)c(-c2cccs2)nn1Cc1ccc(F)c(Cl)c1 [Cyclopropanesulfonic acid {3-[2-(3-chloro-4-fluoro-benzyl)-5-hydroxy-3-oxo-6-thiophen-2-yl-2,3-dihydro-pyridazin-4-yl]-1,1-dioxo-1,2-dihydro-1λ^6-benzo[1,2,4]thiadiazin-7-yl}-amide] | 100 to 1000 nM
CCC(C)CCn1nc(-c2cccs2)c(O)c(C2=NS(=O)(=O)c3cc(NS(C)(=O)=O)ccc3N2)c1=O (stereo not shown) [N-{3-[5-Hydroxy-2-(3-methyl-pentyl)-3-oxo-6-thiophen-2-yl-2,3-dihydro-pyridazin-4-yl]-1,1-dioxo-1,2-dihydro-1λ^6-benzo[1,2,4]thiadiazin-7-yl}-methanesulfonamide] | < 100 nM
CC(C)CCn1nc(CC2=CCCC2)c(O)c(C2=NS(=O)(=O)c3cc(NS(C)(=O)=O)ccc3N2)c1=O [N-{3-[6-Cyclopent-1-enylmethyl-5-hydroxy-2-(3-methyl-butyl)-3-oxo-2,3-dihydro-pyridazin-4-yl]-1,1-dioxo-1,2-dihydro-1λ^6-benzo[1,2,4]thiadiazin-7-yl}-methanesulfonamide] | 100 to 1000 nM
CC(C)CCn1nc(-c2cccs2)c(O)c(C2=NS(=O)(=O)c3cc(CCS(C)(=O)=O)ccc3N2)c1=O [5-Hydroxy-4-[7-(2-methanesulfonyl-ethyl)-1,1-dioxo-1,2-dihydro-1λ^6-benzo[1,2,4]thiadiazin-3-yl]-2-(3-methyl-butyl)-6-thiophen-2-yl-2H-pyridazin-3-one] | 100 to 1000 nM
CC(C)CCn1nc(-c2cncs2)c(O)c(C2=Nc3ccc(NS(=O)(=O)C4CC4)cc3S(=O)(=O)N2)c1=O [Cyclopropanesulfonic acid {3-[5-hydroxy-2-(3-methyl-butyl)-3-oxo-6-thiazol-5-yl-2,3-dihydro-pyridazin-4-yl]-1,1-dioxo-1,2-dihydro-1λ^6-benzo[1,2,4]thiadiazin-7-yl}-amide] | < 100 nM
CC(C)CCn1nc(-c2cccs2)c(OC(=O)C(C)C)c(C2=Nc3ccc(N(C)S(C)(=O)=O)cc3S(=O)(=O)N2)c1=O [Isobutyric acid 5-[7-(methanesulfonyl-methyl-amino)-1,1-dioxo-1,2-dihydro-1λ^6-benzo[1,2,4]thiadiazin-3-yl]-1-(3-methyl-butyl)-6-oxo-3-thiophen-2-yl-1,6-dihydro-pyridazin-4-yl ester] | 1000 to 10000 nM
CS(=O)(=O)Nc1ccc2c(c1)S(=O)(=O)N=C(c1c(O)c(-c3cccs3)nn(CCC3CC3)c1=O)N2 [N-{3-[2-(2-Cyclopropyl-ethyl)-5-hydroxy-3-oxo-6-thiophen-2-yl-2,3-dihydro-pyridazin-4-yl]-1,1-dioxo-1,2-dihydro-1λ^6-benzo[1,2,4]thiadiazin-7-yl}-methanesulfonamide] | < 100 nM
CC(C)CCn1nc(-c2cccs2)c(O)c(C2=Nc3ccc(N(C(=O)OC(C)C)S(C)(=O)=O)cc3S(=O)(=O)N2)c1=O [N-({3-[5-hydroxy-2-(3-methyl-butyl)-3-oxo-6-thiophen-2-yl-2,3-dihydro-pyridazin-4-yl]-1,1-dioxo-1,2-dihydro-1λ^6-benzo[1,2,4]thiadiazin-7-yl}-N-methanesulfonyl)-isopropylcarbamate] | 100 to 1000 nM
CC(C)CCn1nc(C(C)(C)C)c(O)c(C2=Nc3ccc(NS(=O)(=O)C4CC4)cc3S(=O)(=O)N2)c1=O [Cyclopropanesulfonic acid {3-[6-tert-butyl-5-hydroxy-2-(3-methyl-butyl)-3-oxo-2,3-dihydro-pyridazin-4-yl]-1,1-dioxo-1,2-dihydro-1λ^6-benzo[1,2,4]thiadiazin-7-yl}-amide] | 1000 to 10000 nM
CS(=O)(=O)Nc1ccc2c(c1)S(=O)(=O)N=C(c1c(O)c(-c3cccs3)nn(CC3(C(F)(F)F)CC3)c1=O)N2 [N-{3-[5-Hydroxy-3-oxo-6-thiophen-2-yl-2-(1-trifluoromethyl-cyclopropylmethyl)-2,3-dihydro-pyridazin-4-yl]-1,1-dioxo-1,2-dihydro-1λ^6-benzo[1,2,4]thiadiazin-7-yl}-methanesulfonamide] | < 100 nM
CC(C)(C)Cn1nc(-c2cccs2)c(O)c(C2=Nc3ccc(NS(C)(=O)=O)cc3S(=O)(=O)N2)c1=O [N-{3-[2-(2,2-Dimethyl-propyl)-5-hydroxy-3-oxo-6-thiophen-2-yl-2,3-dihydro-pyridazin-4-yl]-1,1-dioxo-1,2-dihydro-1λ^6-benzo[1,2,4]thiadiazin-7-yl}-methanesulfonamide] | < 100 nM
CC(C)CCn1nc(-c2cccs2)c(O)c(C2=Nc3ccc(NC(=O)OC(C)C)cc3S(=O)(=O)N2)c1=O [{3-[5-Hydroxy-2-(3-methyl-butyl)-3-oxo-6-thiophen-2-yl-2,3-dihydro-pyridazin-4-yl]-1,1-dioxo-1,2-dihydro-1λ^6-benzo[1,2,4]thiadiazin-7-yl}-carbamic acid isopropyl ester] | 1000 to 10000 nM
O=c1c(C2=Nc3ccc(NS(=O)(=O)C4CC4)cc3S(=O)(=O)N2)c(O)c(-c2cccs2)nn1CCC1CC1 [Cyclopropanesulfonic acid {3-[2-(2-cyclopropyl-ethyl)-5-hydroxy-3-oxo-6-thiophen-2-yl-2,3-dihydro-pyridazin-4-yl]-1,1-dioxo-1,2-dihydro-1λ^6-benzo[1,2,4]thiadiazin-7-yl}-amide] | < 100 nM
CC(C)(C)CCn1nc(-c2cccs2)c(O)c(C2=NS(=O)(=O)c3cc(NS(N)(=O)=O)ccc3N2)c1=O [N-{3-[2-(3,3-Dimethyl-butyl)-5-hydroxy-3-oxo-6-thiophen-2-yl-2,3-dihydro-pyridazin-4-yl]-1,1-dioxo-1,2-dihydro-1λ^6-benzo[1,2,4]thiadiazin-7-yl}-sulfamide] | < 100 nM
C=CS(=O)(=O)N(C)c1ccc2c(c1)S(=O)(=O)NC(c1c(O)c(-c3cccs3)nn(CCC(C)(C)C)c1=O)=N2 [Ethenesulfonic acid {3-[2-(3,3-dimethyl-butyl)-5-hydroxy-3-oxo-6-thiophen-2-yl-2,3-dihydro-pyridazin-4-yl]-1,1-dioxo-1,2-dihydro-1λ^6-benzo[1,2,4]thiadiazin-7-yl}-methyl-amide] | 1000 to 10000 nM
CC(C)CCn1nc(-c2cncs2)c(O)c(C2=Nc3ccc(N(CCO)S(C)(=O)=O)cc3S(=O)(=O)N2)c1=O [N-(2-Hydroxy-ethyl)-N-{3-[5-hydroxy-2-(3-methyl-butyl)-3-oxo-6-thiazol-5-yl-2,3-dihydro-pyridazin-4-yl]-1,1-dioxo-1,2-dihydro-1λ^6-benzo[1,2,4]thiadiazin-7-yl}-methanesulfonamide] | 100 to 1000 nM
